The subject of test [1] is M. tuberculosis H37Rv. The format is cell-based.
The subject of test [2] is INH-R1 (derived from H37Rv, katG mutant Y155*). Format: cell-based, M. tuberculosis.
The test system of test [3] is RIF-R1 (derived from H37Rv, rpoB mutant S522L). Format: cell-based, M. tuberculosis.
Test [4] relates to FQ-R1 (fluoroquinolone-resistant strain derived from H37Rv, gyrA mutant D94N). Format: cell-based, M. tuberculosis.

SMILES strings stand for the structures. Values after ≈ are worked out from the molar mass of the structure shown. Values joined by “and” are separate entries in the source; they are usually repeats but may differ in a detail not shown here. Equal entries are not always repeated. Where two headings read alike, the source gives them in different places.

In the case of `COc1nc2ccc(Br)cc2cc1[C@@H](c1ccccc1)[C@@](O)(CCN(C)C)c1cccc2ccccc12` [BDQ, bedaquiline, reference compound], the Frequencies of resistance in test [1] was 5.5 × 10^−9 and 3.4 × 10^−7.
With `CCCN1CC2C(CC[C@@]3(C)C2CC[C@@H]3C(=O)Nc2cc(C(C)(C)C)ccc2C(C)(C)C)[C@@]2(C)CCC(=O)C=C12` (some centres unmarked) [Compound 114], the Frequencies of resistance in test [1] (114 5 × MIC with BDQ 5 × MIC) is given as 2 × 10^−7; in test [1] (114 5 × MIC, BDQ none) it was 3.6 × 10^−6; in test [1] (114 10 × MIC with BDQ 10 × MIC), 7.8 × 10^−8; in test [1] (114 10 × MIC, BDQ none), 1.1 × 10^−7.
Regarding `NNC(=O)c1ccncc1` [INH, isoniazid], in test [2], the “MIC INH-R1” value was >200 µM. The “MIC RIF-R1” value in test [3] was determined as 0.20 µM (≈ 0.0274 µg/mL). Further, in test [4], the “MIC FQ-R1” value turned out to be 0.29 µM (≈ 0.0398 µg/mL).

For the origin of these results see US11072633B2 (priority 2016, dated 2021).
